Assay results: patent publication EP0213571A2, “3-Aminomethyl pyrrol-1-yl-alkyl amines and medicaments containing these compounds” (BASF Aktiengesellschaft, priority 1985, dated 1987)

Tested on: Histamin-H₂-Rezeptor
Assay: Antagonism of the dimaprit-induced fall in blood pressure in the anaesthetised rat, test substance given i.v.
Type: in vivo, Ratten (Stamm: Sprague-Dawley, männlich)
Protocol: Sie kann in 1 bis 4 Dosen/Tag aufgeteilt werden.
Zum Nachweis der Histamin-H₂-Rezeptor-blockierenden Wirkung wird folgende Methode angewendet.
Die Applikation der geprüften Substanzen erfolgt intravenös 5 min vor der Dimaprit-Injektion. Als ED 50 % werden die Dosen ermittelt, welche die Dimaprit-Blutdrucksenkung um 50 % hemmen.

In the case of `CNC(=NC#N)NCCSCc1nc[nH]c1C` [Cimetidin], the “Hemmung der Dimaprit-Blutdrucksenkung” value (anaesthetised rats (urethane 1,78 g/kg i.p.), substance i.v. 5 min before Dimaprit 3,16 mg/kg i.v.) is reported as “hemmen diese Dimaprit-Blutdrucksenkung dosisabhängig”.
In the case of `CN(C)CCCSC(=N)N` [Dimaprit, S-[3-(N,N-dimethylamino)propyl]isothio urea], the Blutdrucksenkungen (Dimaprit 3,16 mg/kg i.v. alone, anaesthetised rats, mean, baseline pressure 100 ± 1, 1 mmHg, N = 70) is reported as 27 ± 0,7 mmHg.
`CNC(=NC#N)NCCCCn1c(C)ccc1C` [Verbindung des Beispiels 12] was tested, and the “Histamin-H₂-Rezeptoren-blockierende Wirkung” value (result in words, potency compared with Cimetidin, b35 names no test, assigned to the only test described) was “wesentlich schwächer wirksam als Cimetidin”.
